Assay [1] deals with T1, HIV reverse transcriptase (Human immunodeficiency virus type 1 group M subtype B, UniProt P03366).
T1 construct: Recombinant purified HIV reverse transcriptase (HIV RT) was from Worthington Biochemical Corp; purchased Worthington Biochemical Corp (Lakewood, N.J.)
The assay is described as follows: Biolayer interferometry binding of HIV RT, dNTP and NNRTI to primer-template biosensor (Example 8). To be noted: 100 μM dNTP, 100 nM HIV RT, association phase. The arrangement: species or system HIV-1. As to the method:
Uncompetitive NNRTI compounds (Pitta et al., J. Enzyme Inhib. Med. Chem. 28(10): 113-22 (2013)), which is incorporated by reference herein in its entirety), were from Epigen Biosciences, Inc. (San Diego, Calif.). NNRTI compounds 7 (3-4-chloro-benzo[d]thiazol-2-yl)-2-(2-chloro-6-fluorophenyl)thiazolidin-4-one) and 18 (3-(6-ethoxy-benzo[d]thiazol-2-yl)-2-(2-chloro-6-fluorophenyl)thiazolidin-4-one) were dissolved in dimethylsulfoxide (DMSO) to concentrations of 25.0 mM and 15.0 mM, respectively. Recombinant purified HIV reverse transcriptase (HIV RT) was from Worthington Biochemical Corp (Lakewood, N.J.). Ultra-pure bovine serum albumin (BSA) was from Ambion (Foster City, Calif.). […] Primer-template duplex was diluted (100 μM) into Annealing Buffer. Immediately before use, HIV Reverse Transcriptase was pre-diluted into Enzyme Diluent (50 mM Tris buffer (pH 8.0), 8 mM MgCl2). […] NNRTI compounds were pre-diluted with DMSO immediately before being spiked into Binding Buffer. Reaction Buffer was Binding Buffer without NNRTI, dNTP or HIV RT enzyme. […] Biosensors were transferred to Binding Buffer containing HIV RT and dCTP+NNRTI (association phase) followed by Reaction Buffer (dCTP incorporation and dissociation phase). […] Cycles of binding and incorporation were repeated multiple times. […]
In general terms: Biolayer interferometry detects binding as a change in optical thickness at a sensor tip.

For assay [2], the system named is Nucleic Acid:Polymerase Complex. Nature of the assay: Stabilization of nucleic acid:polymerase complex in wash buffer (Example 6). To be noted: 3.5 mM Sr2+ in wash buffer (LS buffer). The class given is binding. The method, then:
To minimize the possibility of multiple incorporations in a homopolymer region, a wash step can be performed before incorporation. Metal cations such as calcium and strontium can stabilize the polymerase complex (like magnesium), but cannot support catalysis of the phosphodiester bond which results in incorporation of the nucleotide. In this experiment, varying concentrations of SrCl2 (0 mM-14 mM) were added to the wash buffer (LS buffer).

The target of assay [3] is Klenow (3′→5′ exo(−)) fragment of E. coli DNA polymerase (Escherichia coli, UniProt P00582, D355A/E357A). To be noted: divalent cation 2.0 mM (CoCl2 1.0 mM) in Binding Buffer; 100 μM dCTP.
Sequence of Klenow (3′→5′ exo(−)) fragment of E. coli DNA polymerase (P00582 324-928 D355A/E357A limits assumed): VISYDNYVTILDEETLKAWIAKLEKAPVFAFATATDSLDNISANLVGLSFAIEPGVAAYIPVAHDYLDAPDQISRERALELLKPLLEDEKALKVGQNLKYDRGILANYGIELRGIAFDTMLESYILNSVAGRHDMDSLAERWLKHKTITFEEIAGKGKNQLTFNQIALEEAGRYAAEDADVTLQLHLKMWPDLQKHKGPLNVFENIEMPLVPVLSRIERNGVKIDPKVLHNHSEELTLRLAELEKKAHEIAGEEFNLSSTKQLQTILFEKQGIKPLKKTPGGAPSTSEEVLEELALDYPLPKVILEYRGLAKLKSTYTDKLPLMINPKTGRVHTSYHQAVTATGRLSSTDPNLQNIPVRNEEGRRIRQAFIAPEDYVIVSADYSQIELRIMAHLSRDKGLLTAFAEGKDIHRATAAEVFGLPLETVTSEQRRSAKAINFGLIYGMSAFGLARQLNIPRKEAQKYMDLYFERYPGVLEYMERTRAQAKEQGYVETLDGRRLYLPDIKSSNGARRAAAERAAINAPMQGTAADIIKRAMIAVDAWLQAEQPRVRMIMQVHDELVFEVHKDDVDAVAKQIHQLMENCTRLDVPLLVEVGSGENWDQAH

As for `CCOc1ccc2nc(N3C(=O)CSC3c3c(F)cccc3Cl)sc2c1` (stereo not shown) [NNRTI compound 18, 3-(6-ethoxy-benzo[d]thiazol-2-yl)-2-(2-chloro-6-fluorophenyl)thiazolidin-4-one], the “binding of HIV reverse transcriptase and correct dNTP to biosensor coated with primer-template” value in assay [1] (NNRTI 80 μM) is reported as “distinct peaks for binding”.
For `O=C1CSC(c2c(F)cccc2Cl)N1c1nc2c(Cl)cccc2s1` (stereo not shown) [NNRTI compound 7], the “binding of HIV reverse transcriptase and correct dNTP to biosensor coated with primer-template” value in assay [1] (NNRTI 40 μM) is given as “distinct peaks for binding”.
Turning to `[Cl-].[Cl-].[Sr+2]` [SrCl2, Strontium chloride], the “stability of polymerase complex in wash buffer” value in assay [2] is “much more stable”. For the same molecule, the “binding of Klenow exo(−) and dCTP to biosensor coated with ssDNA primer-template” value in assay [3] is “bound strongly”.
